# Experimental data taken from publication PMC5377825, “Catalytic Determinants of Alkene Production by the Cytochrome P450 Peroxygenase OleTJE” (The Journal of Biological Chemistry, 2017).
# Substitutions are numbered along the chain they refer to. Where two headings read alike, the source gives them in different places.
# How the values were obtained:
# Experiment in all cases: UV-visible heme spectral titration
# Assay type in all cases: binding
# OleTJE (CYP152L1) [1] = molecular target: T1, OleTJE (CYP152L1) (Jeotgalicoccus sp. ATCC 8456, UniProt E9NSU2, F79W)
# T1 construct: gene JEM45_03820; full length, codon-optimized gene in modified pET15b, N-terminal polyhistidine tag with TEV site; tag kept for spectroscopy, cleaved for crystallography; expressed in E. coli C41 (DE3)
# T1 sequence (E9NSU2 1-422 F79W): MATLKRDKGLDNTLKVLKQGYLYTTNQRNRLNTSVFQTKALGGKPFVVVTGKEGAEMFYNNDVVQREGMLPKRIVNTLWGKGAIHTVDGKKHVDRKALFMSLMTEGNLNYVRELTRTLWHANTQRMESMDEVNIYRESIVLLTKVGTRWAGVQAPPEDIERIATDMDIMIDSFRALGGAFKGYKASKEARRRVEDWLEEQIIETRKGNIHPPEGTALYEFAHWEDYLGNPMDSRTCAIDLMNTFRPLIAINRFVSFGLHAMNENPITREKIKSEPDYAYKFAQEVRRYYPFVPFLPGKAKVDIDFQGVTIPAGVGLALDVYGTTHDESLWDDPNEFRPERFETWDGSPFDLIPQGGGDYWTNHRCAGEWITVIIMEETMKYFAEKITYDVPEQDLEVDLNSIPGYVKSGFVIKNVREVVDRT
# Text: (§1) UV-visible heme spectral titration on OleTJE (CYP152L1)
# OleTJE (CYP152L1) [2] = molecular target: T2, OleTJE (CYP152L1) (Jeotgalicoccus sp. ATCC 8456, UniProt E9NSU2)
# T2 construct: gene JEM45_03820; full length, codon-optimized gene in modified pET15b, N-terminal polyhistidine tag with TEV site; tag kept for spectroscopy, cleaved for crystallography; expressed in E. coli C41 (DE3)
# T2 sequence (E9NSU2 1-422): T1 sequence (E9NSU2 1-422 F79W) with W79F
# Text: as §1
# OleTJE (CYP152L1) [3] = molecular target: T3, OleTJE (CYP152L1) (Jeotgalicoccus sp. ATCC 8456, UniProt E9NSU2, H85Q)
# T3 construct: gene JEM45_03820; full length, codon-optimized gene in modified pET15b, N-terminal polyhistidine tag with TEV site; tag kept for spectroscopy, cleaved for crystallography; expressed in E. coli C41 (DE3)
# T3 sequence (E9NSU2 1-422 H85Q): T1 sequence (E9NSU2 1-422 F79W) with W79F, H85Q
# Text: as §1
# OleTJE (CYP152L1) [4] = molecular target: T4, OleTJE (CYP152L1) (Jeotgalicoccus sp. ATCC 8456, UniProt E9NSU2, F79A)
# T4 construct: gene JEM45_03820; full length, codon-optimized gene in modified pET15b, N-terminal polyhistidine tag with TEV site; tag kept for spectroscopy, cleaved for crystallography; expressed in E. coli C41 (DE3)
# T4 sequence (E9NSU2 1-422 F79A): T1 sequence (E9NSU2 1-422 F79W) with W79A
# Text: as §1
# OleTJE (CYP152L1) [5] = molecular target: T5, OleTJE (CYP152L1) (Jeotgalicoccus sp. ATCC 8456, UniProt E9NSU2, F79Y)
# T5 construct: gene JEM45_03820; full length, codon-optimized gene in modified pET15b, N-terminal polyhistidine tag with TEV site; tag kept for spectroscopy, cleaved for crystallography; expressed in E. coli C41 (DE3)
# T5 sequence (E9NSU2 1-422 F79Y): T1 sequence (E9NSU2 1-422 F79W) with W79Y
# Text: as §1
# OleTJE (CYP152L1) [6] = molecular target: T6, OleTJE (CYP152L1) (Jeotgalicoccus sp. ATCC 8456, UniProt E9NSU2, R245E); conditions: read-out: Fatty acid Kd (HS) / C10:0
# T6 construct: gene JEM45_03820; full length, codon-optimized gene in modified pET15b, N-terminal polyhistidine tag with TEV site; tag kept for spectroscopy, cleaved for crystallography; expressed in E. coli C41 (DE3)
# T6 sequence (E9NSU2 1-422 R245E): T1 sequence (E9NSU2 1-422 F79W) with W79F, R245E
# Text: as §1
# [7] = read-out: Fatty acid Kd (HS) / C18:0
# [8] = read-out: Fatty acid Kd (HS) / C20:0
# [9] = read-out: Fatty acid Kd (HS) / C12:0
# [10] = read-out: Fatty acid Kd (HS) / C14:0
# [11] = read-out: Fatty acid Kd (HS) / C16:0
# [12] = read-out: Fatty acid Kd (HS) / C10:0
smiles,measurement,setting,value
"CCCCCCCCCCCCCCCCCC(=O)O [C18:0, octadecanoic acid]",Kd,OleTJE (CYP152L1) [1]; [7],4.52 ± 0.2 µM
same,Kd,OleTJE (CYP152L1) [2]; [7],4.09 ± 0.16 µM
same,Kd,OleTJE (CYP152L1) [3]; [7],5.92 ± 0.08 µM
same,Kd,OleTJE (CYP152L1) [4]; [7],8.7 ± 0.5 µM
"CCCCCCCCCCCCCCCCCCCC(=O)O [C20:0, eicosanoic acid]",Kd,OleTJE (CYP152L1) [5]; [8],4.25 ± 0.21 µM
same,Kd,OleTJE (CYP152L1) [1]; [8],4.41 ± 0.27 µM
same,Kd,OleTJE (CYP152L1) [2]; [8],4.43 ± 0.19 µM
same,Kd,OleTJE (CYP152L1) [3]; [8],5.27 ± 0.05 µM
same,Kd,OleTJE (CYP152L1) [4]; [8],3.4 ± 0.3 µM
"CCCCCCCCCCCC(=O)O [C12:0, dodecanoic acid]",Kd,OleTJE (CYP152L1) [5]; [9],196 ± 5 µM
same,Kd,OleTJE (CYP152L1) [1]; [9],106 ± 9 µM
same,Kd,OleTJE (CYP152L1) [2]; [9],11.7 ± 0.43 µM
same,Kd,OleTJE (CYP152L1) [3]; [9],37.3 ± 2.5 µM
same,Kd,OleTJE (CYP152L1) [4]; [9],55 ± 4.8 µM
"CCCCCCCCCCCCCC(=O)O [C14:0, tetradecanoic acid]",Kd,OleTJE (CYP152L1) [5]; [10],30.7 ± 1 µM
same,Kd,OleTJE (CYP152L1) [1]; [10],24.1 ± 0.9 µM
same,Kd,OleTJE (CYP152L1) [2]; [10],1.45 ± 0.05 µM
same,Kd,OleTJE (CYP152L1) [3]; [10],10.5 ± 0.1 µM
same,Kd,OleTJE (CYP152L1) [4]; [10],39.1 ± 2.5 µM
"CCCCCCCCCCCCCCCC(=O)O [C16:0, hexadecanoic acid]",Kd,OleTJE (CYP152L1) [1]; [11],12.7 ± 0.7 µM
same,Kd,OleTJE (CYP152L1) [2]; [11],1.73 ± 0.08 µM
same,Kd,OleTJE (CYP152L1) [3]; [11],5.36 ± 0.18 µM
same,Kd,OleTJE (CYP152L1) [4]; [11],22.6 ± 1.9 µM
"CCCCCCCCCC(=O)O [C10:0, decanoic acid]",Kd,OleTJE (CYP152L1) [6],1260 ± 160 µM
same,Kd,OleTJE (CYP152L1) [2]; [12],47.1 ± 2.1 µM
same,Kd,OleTJE (CYP152L1) [4]; [12],465 ± 11 µM
